One assay deals with T1, IDO in Hela cells (Homo sapiens, UniProt P14902).
T1 construct: endogenous in cells; host or cells: HeLa cells stimulated with human interferon γ
As to the kind of experiment: Test of cellular activity (kynurenine formation in interferon γ stimulated Hela cells). Type of assay: cell-based. The note with it: head prints IPS cells, method: Hela cells, 48 h incubation, read at 480 nm. On the procedure: (3) Test Method of Cellular Activity
Hela cells (80 μL) was inoculated on a 96-well plate (5×10^3 for each well) to grow overnight. After the compound was diluted the next day, 1 μL of diluent and 100 μL of culture medium which contains human interferon γ (final concentration: 50 ng/m) were added into the 96-well plate to make the final volume reach […]. After incubating for 48 h, 80 μL of supernate was transferred from each well to a new […]. 10 μL 6.1N trichloroacetic acid was added into each well for mixing and incubation at 50° C. for 30 min, and […] N formyl-kynurenin into kynurenine. The reaction mixture was centrifuged at 2,500 rpm for 10 min, 70 μL of supernatant of each well was transferred to a new 96-well plate and mixed with 100 μL of 2% (w/v) dimethylaminobenzaldehyde acetic acid solution. After placing for 5-10 min, measurement was carried out at 480 nm with the SPECTRAmax i13 reader.

Another assay has as its target T2, IDO enzyme (Homo sapiens, UniProt P14902).
T2 construct: made in house; host or cells: E. coli BL21 (pET28a-IDO plasmid)
As to the kind of experiment: IDO enzyme inhibitory activity test. In kind it is biochemical. Conditions: recombinant IDO, D-Trp substrate, reading at 321 nm for 40 min. As to the method:
(1) Induced Expression and Purification Method of IDO Protein
Firstly, DO gene was amplified with PCR, and the amplified PCR product was recycled. Digestion (2 h under 37° C.), gel running and recycling were carried out on the pET28a plasmid (purchased from Shanghai Baomanbio Co., Ltd.) and IDO gel with two restriction enzymes (EcoR I and Xho I). T4 ligase was connected with the product overnight, added into DH5α competence, placed on the ice for 30 min and subjected to thermal shock at 42° C. for 90 s.
BL21 which contained pET28a-IDO plasmid was shaken vigorously at 37° C. till OD600 was 0.6-0.8, added into hemin (final concentration: 40 μM) and 0.5 mM IPTG (isopropyl-3-D-IPTG) and induced under 16° C. for 20 h; after induction, thallus were collected centrifugally at 4° C. and 6,000 rpm, washed with 50 mM PBS (pH 7.5) and collected again centrifugally.
The collected thallus were suspended again with buffer solution (50 mM PBS pH 7.5). An appropriate amount of 100×PMSF was added. The thallus were disrupted with cell disruption instrument (1,400 bar) at 4° C. for three times. The split bacteria were centrifuged at 18,000×g for 45 min. The sediment was removed but supernatant was retained and filtered with a 0.45 μm film at 4° C.; the nickel column was balanced with lysis buffer (50 mM PBS pH7.5) by 3 column volumes.
The supernatant was loaded on the nickel column and washed with wash solution (50 mM PBS pH7.5, 50 mM imidazole) by 4 column volume. Finally, protein was eluted with eluant (50 mM PBS pH7.5, 250 mM imidazole); dialyzed for 6 h with dialysis solution (50 mM PBS pH7.5), concentrated, sub-packaged, quickly frozen with liquid nitrogen and stored at −80° C. for backup.
(2) Test Method for IDO Enzyme Inhibitory Activity
Firstly, the compound was diluted by triple gradient. 1 μL of each concentration was added into a 96-well plate; 50 μL of IDO Enzyme solution PBS (pH 7.5; final concentration: 50 mM) was added: 25 μL of substrate 1 (methylene blue, final concentration: […]; catalase, final concentration: 0.2 μg/L; PBS (pH 7.5; final concentration: 50 mM) mixture and 25 μL of substrate 2 (D-Trp, final concentration: 1.5 mM; sodium ascorbate, final concentration: 20 mM; PBS (pH 7.5), final concentration 50 mM) mixture were added for starting the reaction. Finally, OOD321 nm reading was carried out for 40 min.

By IC50 is commonly meant the point on the concentration scale where inhibition reaches its midpoint.

T1 sequence (P14902 whole entry): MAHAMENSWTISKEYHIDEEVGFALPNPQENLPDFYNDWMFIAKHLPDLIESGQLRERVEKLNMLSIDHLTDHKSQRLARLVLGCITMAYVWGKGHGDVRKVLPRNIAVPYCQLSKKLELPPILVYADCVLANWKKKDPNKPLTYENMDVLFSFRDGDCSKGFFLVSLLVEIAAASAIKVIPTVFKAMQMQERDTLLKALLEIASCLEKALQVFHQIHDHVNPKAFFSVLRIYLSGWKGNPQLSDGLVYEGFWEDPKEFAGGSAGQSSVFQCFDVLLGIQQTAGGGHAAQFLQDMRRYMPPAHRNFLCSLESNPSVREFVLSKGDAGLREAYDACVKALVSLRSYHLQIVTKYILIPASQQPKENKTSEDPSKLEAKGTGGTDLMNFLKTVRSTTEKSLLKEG
T2 sequence (P14902 whole entry): as above

As for `O=C(Nc1ccc(Cl)cc1)C1CC2(C1)CC(c1ccnc3ccccc13)C2` (racemic) [Example 1, (±)-N-(4-chlorophenyl)-6-(quinolin-4-yl)spiro[3.3]heptane-2-carboxamide], the half-maximal inhibitory concentration (IC50) on IDO in Hela cells was greater than 50 nM; on IDO enzyme it was 1100 nM. Turning to `O=C(Nc1ccc(Cl)cc1)C1CC12CCC(c1ccnc3ccccc13)CC2` (racemic) [Example 2A, (±)-(cis/trans)-N-(4-chlorophenyl)-6-(quinolin-4-yl)spiro[2.5]octane-1-carboxamide], the half-maximal inhibitory concentration (IC50) was greater than 50 nM against IDO in Hela cells and 1300 nM at IDO enzyme. For the compound `O=C(Nc1ccc(Cl)cc1)C1CC12CCC(c1ccnc3ccccc13)CC2` (racemic) [Example 2B, (±)-(cis/trans)-N-(4-chlorophenyl)-6-(quinolin-4-yl)spiro[2.5]octane-1-carboxamide], the IC50 at IDO enzyme was 500 nM. For the compound `O=C(Nc1ccc(Cl)cc1)C1CC2(C1)CC(c1ccnc3ccc(F)cc13)C2` (racemic) [Example 3, (±) N-(4-chlorophenyl)-6-(6-fluoroquinolin-4-yl)spiro[3.3]heptane-2-carboxamide], the half-maximal inhibitory concentration (IC50) on IDO in Hela cells was greater than 3 nM; at IDO enzyme, 630 nM. Taken in the same sequence, the figures for `O=C(Nc1ccc(Cl)cc1)C1CC12CCC(c1ccnc3ccc(F)cc13)CC2` (racemic) [Example 4, (±)-(cis/trans)-N-(4-chlorophenyl)-6-(6-fluoroquinolin-4-yl)spiro[2.5]octane-1-carboxamide] were 22 nM and 160 nM. Turning to `O=C(Nc1ccc(F)cc1)C1CC12CCC(c1ccnc3ccc(F)cc13)CC2` (racemic) [Example 5, (±)-(cis/trans)-N-(4-fluorophenyl)-6-(6-fluoroquinolin-4-yl)spiro[2.5]octane-1-carboxamide], the values for the half-inhibitory concentration (IC50) on IDO in Hela cells and on IDO enzyme were greater than 3 nM and 330 nM, respectively. The matching figures for `O=C(Nc1ccc(C(F)(F)F)cc1)C1CC12CCC(c1ccnc3ccc(F)cc13)CC2` (racemic) [Example 6, (±)-(cis/trans)-6-(6-fluoroquinolin-4-yl)-N-(4-trifluoromethyl)phenyl)spiro[2.5]octane-1-carboxamide]: greater than 4 nM and 470 nM. As to `O=C(Nc1ccccc1)C1CC12CCC(c1ccnc3ccc(F)cc13)CC2` (racemic) [Example 7, (±)-(cis/trans)-6-(6-fluoroquinolin-4-yl)-N-phenylspiro[2.5]octane-1-carboxamide], on IDO enzyme, the concentration for half-maximal inhibition (IC50) was 990 nM. On to `O=C(NC1CC12CCC(c1ccnc3ccc(F)cc13)CC2)c1ccc(Cl)cc1` (racemic) [Example 8, (±)-(cis/trans)-4-chloro-N-(6-(6-fluoroquinolin-4-yl)spiro[2.5]octan-1-yl)benzamide], for which the concentration for half-maximal inhibition (IC50) was greater than 30 nM against IDO in Hela cells and 990 nM at IDO enzyme.

Consider `O=C(Nc1ccc(Cl)cc1)NC1CC12CCC(c1ccnc3ccc(F)cc13)CC2` (racemic) [Example 9, (±)-(cis/trans)-1-(4-chlorophenyl)-3-(6-(6-fluoroquinolin-4-yl)spiro[2.5]octan-1-yl)urea], for which, at IDO enzyme, the 50% inhibitory concentration (IC50) was determined as 3000 nM. As to `O=C(Nc1ccc(Cl)cc1)NC1CCC12CCC(c1ccnc3ccc(F)cc13)CC2` (racemic) [Example 11A, (±) 1-(4-chlorophenyl)-3-(7-(6-fluoroquinolin-4-yl)spiro[3.5]nonan-1-yl)urea], the IC50 on IDO enzyme came to 6900 nM. On the same count and under the same terms, as for `O=C(Nc1ccc(Cl)cc1)NC1CCC12CCC(c1ccnc3ccc(F)cc13)CC2` (racemic) [Example 11B, (±) 1-(4-chlorophenyl)-3-(7-(6-fluoroquinolin-4-yl)spiro[3.5]nonan-1-yl)urea], the figure is 2700 nM; as for `O=C(NC1CCC12CCC(c1ccnc3ccc(F)cc13)CC2)c1ccc(Cl)cc1` (racemic) [Example 12A, (±) 4-chloro-N-(7-(6-fluoroquinolin-4-yl)spiro[35]nonan-1-yl)benzamide], 1200 nM. As to `O=C(NC1CCC12CCC(c1ccnc3ccc(F)cc13)CC2)c1ccc(Cl)cc1` (racemic) [Example 12B, (±) 4-chloro-N-(7-(6-fluoroquinolin-4-yl)spiro[3.5]nonan-1-yl)benzamide], the 50% inhibitory concentration (IC50) against IDO in Hela cells was greater than 30 nM; on IDO enzyme, 1180 nM.

As to `O=C(Nc1cccc(Br)c1)C1CCC12CCC(c1ccnc3ccc(F)cc13)CC2` (racemic) [Example 14A, (±)-N-(3-bromophenyl)-7-(6-fluoroquinolin-4-yl)spiro[3.5]nonane-1-carboxamide], the 50% inhibitory concentration (IC50) at IDO enzyme came out at 7600 nM. In the case of `O=C(Nc1cccc(Br)c1)C1CCC12CCC(c1ccnc3ccc(F)cc13)CC2` (racemic) [Example 14B, (±)-N-(3-bromophenyl)-7-(6-fluoroquinolin-4-yl)spiro[3.5]nonane-1-carboxamide], at IDO enzyme, the IC50 came out at 7000 nM. With `O=C(Nc1ccc(Cl)cc1)NC1CC2(CCC(c3ccnc4ccc(F)cc34)CC2)C1` (racemic) [Example 16, (±) 1-(4-chlorophenyl)-3-(7-(6-fluoroquinolin-4-yl)spiro[3.5]nonan-2-yl)urea], on IDO enzyme, the IC50 stood at 3200 nM.

`O=C(NC1CC2(CCC(c3ccnc4ccc(F)cc34)CC2)C1)c1ccc(Cl)cc1` (racemic) [Example 17, (±) 4-chloro-N-(7-(6-fluoroquinolin-yl)spiro[3.5]nonan-2-yl)benzamide]: at IDO enzyme, the IC50 was determined as 480 nM. For the compound `O=C(Nc1ccc(Br)cc1)C1CC2(CCC(c3ccnc4ccc(F)cc34)CC2)C1` (racemic) [Example 18, (±) N-(4-bromophenyl)-7-(6-fluoroquinoline-4-yl)spiro[3.5]nonane-2-carboxamide], the results for the IC50 on IDO in Hela cells and on IDO enzyme were 2.52 nM and 200 nM, respectively. The matching figures for `O=C(Nc1ccc(F)cc1)C1CC2(CCC(c3ccnc4ccc(F)cc34)CC2)C1` (racemic) [Example 19, (±) N-(4-fluorophenyl)-7-(6-fluoroquinolin-4-yl)spiro[3.5]nonane-2-carboxamide]: 3.36 nM and 400 nM. Consider `O=C(NC1CC2(CCC(c3ccnc4ccc(F)cc34)CC2)C1)c1ccc(Br)cc1` (racemic) [Example 20, (±) 4-bromo-N-(7-(6-fluoroquinolin-4-yl)spiro[3.5]nonan-2-yl)benzamide], for which the IC50 is greater than 10 nM against IDO in Hela cells and 2420 nM on IDO enzyme. For `O=C(Nc1ccc(Cl)cc1)C1CCC12CCC(c1ccnc3ccc(F)cc13)CC2` (single isomer, unassigned) [Example 10B, (±) N-(4-chlorophenyl)-7-(6-fluoroquinolin-4-yl)spiro[3.5]nonane-1-carboxamide], at IDO enzyme, the concentration for half-maximal inhibition (IC50) came out at 2100 nM. On the same count and under the same terms, as for `O=S(=O)(NC1CCC12CCC(c1ccnc3ccc(F)cc13)CC2)c1ccc(Cl)cc1` (single isomer, unassigned) [Example 13A, (±) 4-chloro-N-(7-(6-fluoroquinolin-4-yl)spiro[3.5]nonan-1-yl)benzenesulfonamide], the figure is 20000 nM. On the same count and under the same terms, next, `O=S(=O)(NC1CCC12CCC(c1ccnc3ccc(F)cc13)CC2)c1ccc(Cl)cc1` (single isomer, unassigned) [Example 13B, (±) 4-chloro-N-(7-(6-fluoroquinolin-4-ylspiro[3.5]nonan-1-yl)benzenesulfonamide]: 157000 nM; `O=C(Nc1ccc(Cl)cc1)C1CCC2(CC1)CC(c1ccnc3ccc(F)cc13)C2` (single isomer, unassigned) [Example 22A, N-(4-chlorophenyl)-2-(6-fluoroquinoline-4-yl)spiro[3.5]nonane-7-carboxamide]: 4160 nM; `O=C(Nc1ccc(Cl)cc1)C1CCC2(CC1)CC(c1ccnc3ccc(F)cc13)C2` (single isomer, unassigned) [Example 22B, N-(4-chlorophenyl)-2-(6-fluoroquinoline-4-yl)spiro[3.5]nonane-7-carboxamide]: 3440 nM.
